One may read the EC50 as the concentration needed to bring the measured effect to its halfway point. Broadly, the IC50 is the concentration needed to halve the response being measured. A high value points to weaker potency in that assay.

Activity calls are given as the source filed them.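 How the source made its calls: active means compounds giving half or more protection of infected cells from virus-caused growth loss, again on retest; inactive means the rest.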 Where a SMILES comes first, the peptide text is derived from it.

The text below walks through data of PubChem BioAssay AID179 (DTP/NCI, 2004).

For this assay, the system named is CEM cells HIV-1 protection, formazan growth assay. Kind of assay: NCI AIDS Antiviral Assay. To be noted: for IC50: measured here: growth of uninfected CEM cells. Put shortly: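 Steps: treat uninfected and HIV-1-infected human CEM cells at five drug levels; quantify growth by soluble formazan; retest any compound reaching 50% protection; classify actives from the retest.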

For `C/C=C1\CN(C)C[C@H]2Cc3c(n(OC)c4ccccc34)C(=O)C[C@@H]12`, the EC50 was > 24 µM and the half-maximal inhibitory concentration (IC50) is > 24 µM. In the case of `COC(=O)CCNc1c2ccccc2nc2cccc([N+](=O)[O-])c12`, the EC50 was > 0.2 µM and the IC50 was 0.0794 µM. For the compound `O=C1c2ccccc2-c2c1c1ccccc1c(=O)n2Cc1ccccc1`, the EC50 is > 29.5 µM and the IC50 is > 29.5 µM. `CC1(C)C(=O)CC[C@@]2(C)C1CC[C@]1(C)C2CC=C2[C@@H]3C[C@](C)(C(=O)O)CC[C@]3(C)CCC21C` (stereo partly specified): the EC50 was > 200 µM and the IC50 worked out at 95.5 µM. For `COC1OC(CO)C2OC12` (stereo unspecified) the same measures were > 200 µM and > 200 µM. The like results for `CCc1ccccc1NC(=O)C(=O)CC(=O)c1sc(Nc2ccccc2)nc1C` were, in that order, > 89.1 µM and 53.7 µM. As for `COC(=O)CC(C)(NS(=O)c1ccc(C)cc1)c1ccccc1` (stereo unspecified), the EC50 is > 200 µM and the IC50 is 120 µM. As for `COc1ccc2nc3cc([N+](=O)[O-])ccc3c(NNc3ccc([N+](=O)[O-])cc3)c2c1`, the EC50 was > 200 µM and the IC50 was found to be 50.1 µM.

In the case of `CCOC(=O)C(=CNc1ccc(F)c(F)c1)C(=O)OCC`, the EC50 is > 200 µM and the IC50 was 79.4 µM.

As for `Cc1cc(NS(=O)(=O)c2ccc(Nc3c4ccccc4nc4c(C(=O)N5CCN(CCOS(C)(=O)=O)CC5)cccc34)cc2)no1`, the EC50 is > 44.7 µM and the IC50 is > 44.7 µM. As to `Cc1ccc(S(=O)(=O)NN=C2C(C)CC(C(C)(C)C)CC2C)cc1` (stereo unspecified), the EC50 is > 200 µM and the IC50 came out at 31.6 µM.

As for `Cc1[nH]c(=O)[nH]c(=O)c1N(CCF)CCCl`, the EC50 is > 1000 µM and the IC50 was 89.1 µM.

On to `O=S(=O)(c1cc(Cl)ccc1Cl)N1CCN(c2cccc(Cl)c2)CC1`, for which the outcome was inactive. Regarding `CCN(CC)CCNc1ccc2ncn3c4cc(OC)c(OC)c(=O)c4c(O)c1c23`, the EC50 was > 50.1 µM and the IC50 was found to be 0.589 µM. As for `CN1CCC(OC(=O)Oc2ccccc2)(c2ccccc2)CC1`, the EC50 was > 200 µM and the IC50 amounted to 30.9 µM. For the compound `COc1cccc(C(=O)C#Cc2cnc(OC)nc2OC)c1`, the EC50 was > 0.2 µM and the IC50 was 0.0437 µM. `CC(=O)NC(C(=O)N1CCCC1C(=O)O)C(C)C` (stereo not drawn) (Ac-Val-Pro-OH; configuration not given here): the EC50 was > 200 µM and the IC50 was > 200 µM.

Take `N#Cc1c(N)oc(-c2cccc([N+](=O)[O-])c2)c1C#N`: the EC50 is > 200 µM and the IC50 was 10.7 µM. With `CCSCCCN(CCCSCC)CCCSCC`, the EC50 is > 155 µM and the IC50 was > 155 µM.

For the compound `CC(=O)N1C2=CCCC2(C)c2ccccc21` (stereo unspecified), the EC50 is > 200 µM and the IC50 worked out at 56.2 µM. For `CC1Cn2c(c(-c3ccccc3)c(=O)[nH]c2=O)O1` (stereo unspecified) the same measures were > 363 µM and > 363 µM. The like results for `C[N+](C)(C)CC1CCC/C1=N\OC(=O)c1ccccc1` (stereo unspecified) were, in that order, > 617 µM and > 617 µM.

Take `CCOC1c2cc(OC)c(OC)cc2-c2ccc3ccccc3c2N1C` (stereo unspecified): the EC50 is > 74.1 µM and the IC50 was 10.2 µM. For `CC(=O)OCC1OC(NC(=S)Nn2c(=O)[nH]c3ccccc3c2=O)C(OC(C)=O)C(OC(C)=O)C1OC(C)=O` (stereo unspecified) the same measures were > 200 µM and > 200 µM. `COC(=O)C(Cc1c[nH]c2ccccc12)NP(=O)(O)OCC1OC(n2cc(Br)c(=O)[nH]c2=O)CC1O` (stereo unspecified): the EC50 is > 200 µM and the IC50 was > 200 µM. With `CCC1=NS(=O)(=O)c2c(ncn2C)N1`, the EC50 is > 1150 µM and the IC50 was > 1150 µM. Regarding `COC(=O)CP1(=O)OC2C(C3CCC2(C)C3(C)C)N1c1cc(C(F)(F)F)cc(C(F)(F)F)c1` (stereo unspecified), the EC50 was > 200 µM.

Consider `COc1ccc(C2=NOC3COC4C=CC=CC4OCC23)cc1` (stereo unspecified), for which the EC50 was > 83.2 µM and the IC50 was > 83.2 µM. As for `CCOC(=O)NN(C(=O)OCC)C(C(=O)C1=CCCCC1)N(NC(=O)OCC)C(=O)OCC`, the EC50 is > 200 µM and the IC50 is > 200 µM. For the compound `CN1CCCC2(CCCc3ccccc32)C1` (stereo unspecified), the EC50 is > 1000 µM and the IC50 stood at 257 µM. For `O=C(Nc1ccc(Cl)cc1)Nc1ccc(Cl)c(C(F)(F)F)c1` the same measures were > 200 µM and 2.69 µM. `COc1cccc(/C=N\NC(=O)C(C)SC(C)C(=O)N/N=C/c2cccc(OC)c2)c1` (stereo unspecified): the outcome was inactive. Turning to `O=C1OC(=O)C2C1C(c1ccc([N+](=O)[O-])cc1)N1C3C(=O)OC(=O)C3C(c3ccc([N+](=O)[O-])cc3)N21` (stereo unspecified), the EC50 was > 27.5 µM and the IC50 was > 27.5 µM. As to `Cc1ccc2nnc(NS(=O)(=O)c3cc(C)c(Cl)cc3S)n2n1`, the EC50 is > 200 µM and the IC50 is > 200 µM. Regarding `Cc1cc2c(C(C)C)c(O)c(O)c(C=Nc3cccc(Cl)c3)c2c(O)c1-c1c(C)cc2c(C(C)C)c(O)c(O)c(C=Nc3cccc(Cl)c3)c2c1O`, the outcome was inactive. Take `O=C(NCCN1CCCC1)c1cn2c(ccc3sc4ccccc4c(=O)c32)n1`: the EC50 was > 200 µM and the IC50 was determined as 1.26 µM.

In the case of `COC(=O)C1OC(OC2=C(c3ccc(OC)cc3)C(=O)C(OC3OC(C(=O)OC)C(OC(C)=O)C(OC(C)=O)C3OC(C)=O)=C(c3ccc(OC)cc3)C2=O)C(OC(C)=O)C(OC(C)=O)C1OC(C)=O` (stereo unspecified), the EC50 is > 28.8 µM and the IC50 was 4.57 µM. Turning to `Cc1nc(SCC(=O)Nc2ccccc2)c2sc(=S)n(-c3ccccc3)c2n1`, the EC50 was > 501 µM and the IC50 was > 501 µM. In the case of `OC1C=CC2C(CC1)C1(c3ccccc3)OC2(c2ccccc2)c2ccccc21` (stereo unspecified), the result was inactive. With `CC(C)(C)[Si](C)(C)OCC#C[C@@]1(O)CCCCC1CC(Sc1ccccc1)Sc1ccccc1` (stereo partly specified), the EC50 was > 200 µM and the IC50 came out at 12.6 µM.

Consider `Cc1ccc(N(C)S(=O)(=O)c2ccccc2[N+](=O)[O-])cc1`, for which the EC50 is 10.7 µM and the IC50 was 36.3 µM.

With `COC(=O)[C@]1(C)CCC[C@]2(C)C3CC4OOC3(C=C4C(C)C)CCC21` (stereo partly specified), the EC50 was > 251 µM and the IC50 stood at 11.5 µM. For `C=C(C)CC1(O[Si](C)(C)C)C(=O)C(OCC)=C1OCC` (stereo unspecified) the same measures were > 200 µM and > 200 µM. For `Nc1nc(=O)n(C2OC(CO)CC2F)cc1F` (stereo unspecified) the same measures were 55 µM and 575 µM.

As to `Oc1cccc(C2SCc3nc4ccccc4n32)c1` (stereo unspecified), the EC50 is > 126 µM and the IC50 came out at 46.8 µM. For `CC1(C)OC(=O)C=C[C@@]2(C)C1CC(=O)C1(C)C2CCC2(C)C(c3ccoc3)OC(=O)[C@H]3O[C@]321` (stereo partly specified) the same measures were > 200 µM and > 200 µM.

In the case of `O=C1/C(=C\c2cccc(Oc3ccccc3)c2)S(=O)(=O)C(c2ccccc2)N1c1cc(Cl)ccc1Cl` (stereo unspecified), the EC50 is > 200 µM and the IC50 is 3.31 µM. The like results for `Cc1cccc(N=NC2Sc3nc4ccccc4n3C2=O)c1` (stereo unspecified) were, in that order, > 200 µM and > 200 µM. The like results for `O=C(Nc1cccc(C(F)(F)F)c1)C(=O)C(C(=O)c1ccc(Cl)c(Cl)c1)C1OC(=O)c2ccccc21` (stereo unspecified) were, in that order, > 158 µM and 13.8 µM. For `C=C(C(=C)P(=S)(c1ccccc1)c1ccccc1)P(=S)(c1ccccc1)c1ccccc1`, the EC50 is > 26.9 µM and the IC50 is > 26.9 µM. On to `NC(=O)CN(CC(N)=O)C(N)=O`, for which the EC50 was > 724 µM and the IC50 was > 724 µM. In the case of `O=C(C=Nc1ccccc1S)c1cccs1`, the EC50 is > 5.89 µM and the IC50 was > 5.89 µM. `O=C1c2ccccc2CC12Cc1ccc3c(c1C2)CCC3` (stereo unspecified): the EC50 is > 200 µM and the IC50 turned out to be 89.1 µM.

For the compound `N#CCCN(CCC#N)c1ccc(/C=C(/NC(=O)c2cc([N+](=O)[O-])ccc2Cl)C(=O)N=[N+]=[N-])cc1`, the EC50 is > 20.4 µM and the IC50 is > 20.4 µM. On to `CCCCCC/C=[N+](/[O-])CC1OC(n2ccc(=O)[nH]c2=O)C(O[Si](C)(C)C(C)(C)C)C1O[Si](C)(C)C(C)(C)C` (stereo unspecified), for which the EC50 is > 200 µM and the IC50 was 6.76 µM.

With `CCC1=C(C)/C(=C/c2[nH]c(C(Br)Br)c(CC)c2C)N=C1C(Br)Br`, the result was inactive. With `CCOC(=O)CCCN(c1sc(C)c(-c2ccccc2)c1C(=O)OCC)S(=O)(=O)c1ccc(C)cc1`, the EC50 was > 200 µM and the IC50 came out at 3.98 µM. Consider `O=C1C=Cc2ccccc2/C1=C/c1nc(-c2ccccc2)oc1O`, for which the EC50 was > 100 µM and the IC50 worked out at 58.9 µM. In the case of `COc1cccc2c1ccc1nonc12`, the EC50 is > 129 µM and the IC50 is > 129 µM. As to `NC(=O)c1coc(C2OC(CO)C(O)C2O)n1` (stereo unspecified), the EC50 was > 1020 µM and the IC50 was > 1020 µM. Consider `COc1ccc(-c2sc(/N=C/c3cc(Br)cc(Br)c3O)c(C#N)c2C)cc1OC`, for which the outcome was inactive. In the case of `COc1cc(-c2ccc(N=Nc3cc(S(=O)(=O)O)c4ccccc4c3N)c(OC)c2)ccc1N=Nc1cc(S(=O)(=O)O)c2ccccc2c1N`, the EC50 was 13.2 µM and the IC50 stood at 155 µM. The like results for `CC(NC(=O)C(C)C(=O)NCc1ccc(C(F)(F)F)cc1)C(N)=O` (stereo unspecified) were, in that order, > 200 µM and 115 µM. For `COc1ccc(-n2c(C)nc3ccc(N=Cc4ccccc4)cc3c2=O)cc1`, the EC50 is > 200 µM and the half-maximal inhibitory concentration (IC50) is > 200 µM. Regarding `CCCCCCCCCCCCCCCCCCNC(=S)/N=C/c1c(O)cc(C)oc1=O`, the EC50 is > 200 µM and the IC50 was found to be 32.4 µM.

On to `Cc1[nH]c2c(ccc3c2ccc2c(=O)c(Cl)c(C)[nH]c23)c(=O)c1Cl`, for which the EC50 is > 200 µM and the IC50 was > 200 µM. On to `O=c1[nH]c(/C=C(\O)c2ccncc2)nc2ccccc12`, for which the EC50 was > 2.82 µM and the concentration for half-maximal inhibition (IC50) is > 2.82 µM. On to `O=[N+]([O-])c1ccc(NSc2ccccc2)cc1`, for which the EC50 was > 200 µM and the IC50 was found to be 9.33 µM.

Consider `CCOC(=O)C1=C(C)N2CCOC2(C)C(C(=O)OC)C1c1cccc(Cl)c1` (stereo unspecified), for which the EC50 was > 66.1 µM and the IC50 is > 66.1 µM.
